Test results taken from ChEMBL document CHEMBL1154652, “N-(4-(6,7-Disubstituted-quinolin-4-yloxy)-3-fluorophenyl)-2-oxo-3-phenylimidazolidine-1-carboxamides: a novel series of dual c-Met/VEGFR2 receptor tyrosine kinase inhibitors” (Bioorg Med Chem Lett, 2009).
Blank lines part the entries; values can stand above or below the compound they belong to. The source made the active and inactive calls. The rule behind the calls is not given here.

Key:
[1] = Inhibition of GST-tagged VEGFR expressed in Sf9 cells
[2] = molecular target: T1, Hepatocyte growth factor receptor (Homo sapiens, UniProt P08581); experiment: Inhibition of GST-tagged c-Met expressed in Sf9 cells
Target sequence in this assay (P08581 whole entry): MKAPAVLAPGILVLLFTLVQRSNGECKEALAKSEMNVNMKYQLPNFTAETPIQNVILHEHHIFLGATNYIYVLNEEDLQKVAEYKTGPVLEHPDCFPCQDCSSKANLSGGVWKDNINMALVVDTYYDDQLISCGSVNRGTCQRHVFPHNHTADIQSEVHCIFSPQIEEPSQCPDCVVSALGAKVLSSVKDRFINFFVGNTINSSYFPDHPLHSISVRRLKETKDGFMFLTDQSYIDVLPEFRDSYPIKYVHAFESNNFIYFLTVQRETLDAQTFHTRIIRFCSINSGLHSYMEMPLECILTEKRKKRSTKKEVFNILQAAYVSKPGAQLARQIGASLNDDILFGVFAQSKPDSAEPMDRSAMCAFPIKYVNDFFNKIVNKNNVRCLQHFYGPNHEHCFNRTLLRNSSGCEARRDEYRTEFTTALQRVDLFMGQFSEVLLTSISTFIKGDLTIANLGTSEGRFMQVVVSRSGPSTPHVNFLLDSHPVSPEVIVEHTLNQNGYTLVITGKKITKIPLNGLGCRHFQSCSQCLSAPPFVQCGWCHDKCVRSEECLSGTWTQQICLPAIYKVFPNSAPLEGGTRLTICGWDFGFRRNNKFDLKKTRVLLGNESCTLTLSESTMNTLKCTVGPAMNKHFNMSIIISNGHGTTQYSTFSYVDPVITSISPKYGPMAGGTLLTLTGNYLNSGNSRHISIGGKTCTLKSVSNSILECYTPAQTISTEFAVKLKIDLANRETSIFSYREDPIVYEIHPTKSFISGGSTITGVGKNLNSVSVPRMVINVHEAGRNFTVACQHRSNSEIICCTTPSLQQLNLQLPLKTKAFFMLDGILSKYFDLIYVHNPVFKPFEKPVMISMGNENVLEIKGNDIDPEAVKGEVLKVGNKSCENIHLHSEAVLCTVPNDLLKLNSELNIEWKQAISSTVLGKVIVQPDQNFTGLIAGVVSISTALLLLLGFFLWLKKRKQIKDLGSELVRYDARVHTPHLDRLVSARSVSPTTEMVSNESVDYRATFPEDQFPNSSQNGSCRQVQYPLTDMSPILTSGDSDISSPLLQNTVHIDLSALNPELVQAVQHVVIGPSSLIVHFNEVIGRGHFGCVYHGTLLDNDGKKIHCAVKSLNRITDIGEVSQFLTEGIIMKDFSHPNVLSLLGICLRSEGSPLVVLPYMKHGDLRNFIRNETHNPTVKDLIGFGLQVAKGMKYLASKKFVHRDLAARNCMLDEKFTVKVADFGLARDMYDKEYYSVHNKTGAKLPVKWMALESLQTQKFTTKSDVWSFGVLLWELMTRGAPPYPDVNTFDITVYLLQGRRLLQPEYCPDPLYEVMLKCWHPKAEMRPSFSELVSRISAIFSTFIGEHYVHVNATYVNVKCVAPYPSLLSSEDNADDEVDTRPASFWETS

[3] = molecular target: T1, Hepatocyte growth factor receptor; experiment: Inhibition of TPR-Met assessed as autophosphorylation
Target sequence in this assay (P08581 25-1390 limits assumed): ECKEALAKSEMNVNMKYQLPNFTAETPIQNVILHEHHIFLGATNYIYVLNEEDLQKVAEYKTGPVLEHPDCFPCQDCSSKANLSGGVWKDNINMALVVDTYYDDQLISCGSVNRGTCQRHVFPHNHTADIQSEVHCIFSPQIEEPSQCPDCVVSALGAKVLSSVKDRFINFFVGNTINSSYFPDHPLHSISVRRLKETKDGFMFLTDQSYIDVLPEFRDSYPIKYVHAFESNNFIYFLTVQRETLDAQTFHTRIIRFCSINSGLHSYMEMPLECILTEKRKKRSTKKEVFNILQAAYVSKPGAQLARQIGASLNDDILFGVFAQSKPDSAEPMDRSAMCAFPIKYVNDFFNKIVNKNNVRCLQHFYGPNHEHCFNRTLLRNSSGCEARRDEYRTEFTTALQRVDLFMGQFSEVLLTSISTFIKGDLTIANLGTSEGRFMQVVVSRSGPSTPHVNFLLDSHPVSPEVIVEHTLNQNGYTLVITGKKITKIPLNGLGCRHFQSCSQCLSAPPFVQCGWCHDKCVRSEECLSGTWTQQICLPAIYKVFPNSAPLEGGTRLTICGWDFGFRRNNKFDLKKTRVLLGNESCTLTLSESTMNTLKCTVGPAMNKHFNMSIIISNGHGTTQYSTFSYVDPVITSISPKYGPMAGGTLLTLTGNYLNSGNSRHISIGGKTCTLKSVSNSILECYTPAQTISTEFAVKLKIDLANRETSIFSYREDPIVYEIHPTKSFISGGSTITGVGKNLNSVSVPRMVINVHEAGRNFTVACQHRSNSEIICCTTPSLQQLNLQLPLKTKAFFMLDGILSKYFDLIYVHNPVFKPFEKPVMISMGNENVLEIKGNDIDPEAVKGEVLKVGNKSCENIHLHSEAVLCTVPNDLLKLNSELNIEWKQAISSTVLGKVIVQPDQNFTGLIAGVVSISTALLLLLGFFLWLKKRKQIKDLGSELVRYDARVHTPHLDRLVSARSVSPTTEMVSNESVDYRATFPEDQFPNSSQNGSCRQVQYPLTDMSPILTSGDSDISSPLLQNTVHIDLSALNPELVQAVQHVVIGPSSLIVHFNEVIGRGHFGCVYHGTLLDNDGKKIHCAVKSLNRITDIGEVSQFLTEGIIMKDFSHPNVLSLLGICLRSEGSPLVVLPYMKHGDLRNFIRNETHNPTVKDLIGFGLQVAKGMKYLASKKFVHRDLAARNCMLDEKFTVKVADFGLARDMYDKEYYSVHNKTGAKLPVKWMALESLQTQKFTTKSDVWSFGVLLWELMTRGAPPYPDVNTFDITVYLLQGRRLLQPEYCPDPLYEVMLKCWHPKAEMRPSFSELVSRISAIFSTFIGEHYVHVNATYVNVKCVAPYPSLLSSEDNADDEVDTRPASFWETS

[4] = Half life in rat; format: ADME, organism-based; conditions: in vivo
[5] = Bioavailability in rat; format: ADME, organism-based; conditions: in vivo
[6] = Inhibition of VEGF-induced ERK phosphorylation in HUVEC; format: cell-based; conditions: Homo sapiens
HUVEC [7] = experiment: Inhibition of VEGF-stimulated proliferation of HUVEC cells; format: functional, cell-based; conditions: Homo sapiens
HUVEC [8] = experiment: Antiangiogenic activity against HUVEC cell assessed as inhibition of tubule formation; format: functional, cell-based; conditions: Homo sapiens
HUVEC [9] = experiment: Antiangiogenic activity against HUVEC cell assessed as inhibition of VEGF-dependent tubule formation; format: functional, Homo sapiens
[10] = molecular target: ALK tyrosine kinase receptor (Homo sapiens) (UniProt Q9UM73); experiment: Inhibition of ALK at 100 uM
[11] = molecular target: Aurora kinase A (Homo sapiens) (UniProt O14965); experiment: Inhibition of Aurora A at 100 uM
[12] = molecular target: Cyclin-dependent kinase 2/cyclin E (Homo sapiens) (UniProt P24864+P24941+O96020); experiment: Inhibition of CDK2/cyclin E at 100 uM; format: protein-complex assay
[13] = molecular target: Serine/threonine-protein kinase Chk1 (Homo sapiens) (UniProt O14757); experiment: Inhibition of CHK1 at 100 uM
[14] = molecular target: Serine/threonine-protein kinase Chk2 (Homo sapiens) (UniProt O96017); experiment: Inhibition of CHK2 at 100 uM
[15] = molecular target: Mast/stem cell growth factor receptor Kit (Homo sapiens) (UniProt P10721); experiment: Inhibition of c-kit at 100 uM
[16] = molecular target: RAF proto-oncogene serine/threonine-protein kinase (Homo sapiens) (UniProt P04049); experiment: Inhibition of c-Raf at 100 uM
[17] = molecular target: Proto-oncogene tyrosine-protein kinase Src (Homo sapiens) (UniProt P12931); experiment: Inhibition of c-SRC at 100 uM
[18] = molecular target: Epidermal growth factor receptor (Homo sapiens) (UniProt P00533); experiment: Inhibition of EGFR at 100 uM
[19] = molecular target: Fibroblast growth factor receptor 1 (Homo sapiens) (UniProt P11362); experiment: Inhibition of FGFR1 at 100 uM
[20] = molecular target: Receptor-type tyrosine-protein kinase FLT3 (Homo sapiens) (UniProt P36888); experiment: Inhibition of Flt3 at 100 uM
[21] = molecular target: Glycogen synthase kinase-3 beta (Homo sapiens) (UniProt P49841); experiment: Inhibition of GSK3-beta at 100 uM
[22] = molecular target: Inhibitor of nuclear factor kappa-B kinase subunit beta (Homo sapiens) (UniProt O14920); experiment: Inhibition of IKK-beta at 100 uM
[23] = molecular target: Tyrosine-protein kinase JAK2 (Homo sapiens) (UniProt O60674); experiment: Inhibition of JAK2 at 100 uM
[24] = molecular target: Tyrosine-protein kinase JAK3 (Homo sapiens) (UniProt P52333); experiment: Inhibition of JAK3 at 100 uM
[25] = molecular target: Dual specificity mitogen-activated protein kinase kinase 1 (Homo sapiens) (UniProt Q02750); experiment: Inhibition of MEK1 at 100 uM
[26] = molecular target: T1, Hepatocyte growth factor receptor; experiment: Inhibition of Met at 100 uM
Target sequence in this assay (P08581 whole entry): as the sequence (P08581 whole entry) above

[27] = molecular target: Platelet-derived growth factor receptor alpha (Homo sapiens) (UniProt P16234); experiment: Inhibition of PDGFRalpha at 100 uM
[28] = molecular target: Platelet-derived growth factor receptor beta (Homo sapiens) (UniProt P09619); experiment: Inhibition of PDGFRbeta at 100 uM
Platelet-derived growth factor receptor beta (Homo sapiens), sequence (P09619 whole entry): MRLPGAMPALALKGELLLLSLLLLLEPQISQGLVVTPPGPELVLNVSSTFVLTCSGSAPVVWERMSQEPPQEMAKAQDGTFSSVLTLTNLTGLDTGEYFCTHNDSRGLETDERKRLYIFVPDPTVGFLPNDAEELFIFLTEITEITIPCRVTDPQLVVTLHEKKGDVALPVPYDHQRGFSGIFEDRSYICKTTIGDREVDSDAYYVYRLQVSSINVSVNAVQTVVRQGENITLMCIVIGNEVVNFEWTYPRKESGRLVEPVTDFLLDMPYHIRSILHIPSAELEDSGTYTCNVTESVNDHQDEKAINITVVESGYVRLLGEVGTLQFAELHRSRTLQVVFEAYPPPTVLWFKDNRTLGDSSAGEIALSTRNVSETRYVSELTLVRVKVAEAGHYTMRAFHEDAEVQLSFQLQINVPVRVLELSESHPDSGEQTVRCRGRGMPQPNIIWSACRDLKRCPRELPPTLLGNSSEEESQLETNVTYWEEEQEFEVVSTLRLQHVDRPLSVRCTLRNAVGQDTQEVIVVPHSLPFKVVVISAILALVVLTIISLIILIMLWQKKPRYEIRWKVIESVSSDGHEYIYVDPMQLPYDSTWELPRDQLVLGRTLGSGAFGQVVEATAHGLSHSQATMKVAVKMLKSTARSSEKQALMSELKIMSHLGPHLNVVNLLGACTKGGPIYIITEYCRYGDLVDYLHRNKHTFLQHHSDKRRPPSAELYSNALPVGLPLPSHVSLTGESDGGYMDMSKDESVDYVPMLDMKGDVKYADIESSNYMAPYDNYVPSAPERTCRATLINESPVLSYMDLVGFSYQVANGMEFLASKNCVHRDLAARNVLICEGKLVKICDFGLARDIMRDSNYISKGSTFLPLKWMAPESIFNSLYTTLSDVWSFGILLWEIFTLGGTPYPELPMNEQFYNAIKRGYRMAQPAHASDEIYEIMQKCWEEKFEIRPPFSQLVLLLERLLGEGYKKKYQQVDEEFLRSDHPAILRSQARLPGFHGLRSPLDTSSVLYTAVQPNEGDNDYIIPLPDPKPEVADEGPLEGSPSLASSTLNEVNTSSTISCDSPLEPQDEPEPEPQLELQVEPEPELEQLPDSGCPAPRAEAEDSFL

[29] = molecular target: RAC-alpha serine/threonine-protein kinase (Homo sapiens) (UniProt P31749); experiment: Inhibition of PKBalpha at 100 uM
[30] = molecular target: Proto-oncogene tyrosine-protein kinase receptor Ret (Homo sapiens) (UniProt P07949); experiment: Inhibition of Ret at 100 uM
[31] = molecular target: Macrophage-stimulating protein receptor (Homo sapiens) (UniProt Q04912); experiment: Inhibition of Ron at 100 uM
[32] = molecular target: Angiopoietin-1 receptor (Homo sapiens) (UniProt Q02763); experiment: Inhibition of Tie-2 at 100 uM
Angiopoietin-1 receptor (Homo sapiens), sequence (Q02763 whole entry): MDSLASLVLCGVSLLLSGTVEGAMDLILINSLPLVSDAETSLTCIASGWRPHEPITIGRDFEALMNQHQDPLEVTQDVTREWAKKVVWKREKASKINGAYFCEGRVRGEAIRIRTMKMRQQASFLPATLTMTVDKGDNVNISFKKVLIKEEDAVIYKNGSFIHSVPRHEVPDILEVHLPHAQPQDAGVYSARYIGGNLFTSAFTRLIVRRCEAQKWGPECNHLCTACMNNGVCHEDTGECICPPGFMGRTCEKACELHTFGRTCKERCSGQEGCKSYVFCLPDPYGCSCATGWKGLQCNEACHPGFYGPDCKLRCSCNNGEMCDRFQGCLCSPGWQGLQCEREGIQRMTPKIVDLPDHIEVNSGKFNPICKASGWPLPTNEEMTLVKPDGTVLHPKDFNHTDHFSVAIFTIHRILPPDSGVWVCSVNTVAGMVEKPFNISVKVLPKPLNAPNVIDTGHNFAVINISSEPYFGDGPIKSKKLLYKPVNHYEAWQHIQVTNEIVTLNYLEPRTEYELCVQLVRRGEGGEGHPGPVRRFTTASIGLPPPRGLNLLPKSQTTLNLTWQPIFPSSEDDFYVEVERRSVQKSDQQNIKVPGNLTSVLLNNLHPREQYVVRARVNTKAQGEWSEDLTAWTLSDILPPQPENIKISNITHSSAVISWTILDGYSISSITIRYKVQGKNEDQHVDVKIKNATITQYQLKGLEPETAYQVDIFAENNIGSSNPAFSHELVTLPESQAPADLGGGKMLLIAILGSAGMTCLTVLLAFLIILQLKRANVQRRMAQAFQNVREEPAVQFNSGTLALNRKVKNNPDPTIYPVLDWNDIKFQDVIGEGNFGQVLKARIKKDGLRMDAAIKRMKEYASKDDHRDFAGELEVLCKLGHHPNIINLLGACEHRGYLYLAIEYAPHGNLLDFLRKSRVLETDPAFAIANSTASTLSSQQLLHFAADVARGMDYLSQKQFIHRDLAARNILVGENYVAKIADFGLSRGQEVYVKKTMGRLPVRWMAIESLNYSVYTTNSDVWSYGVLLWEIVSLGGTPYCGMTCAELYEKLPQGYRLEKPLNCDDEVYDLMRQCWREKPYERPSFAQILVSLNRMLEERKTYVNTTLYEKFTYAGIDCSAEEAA

[33] = molecular target: High affinity nerve growth factor receptor (Homo sapiens) (UniProt P04629); experiment: Inhibition of TrkA at 100 uM
[34] = molecular target: Vascular endothelial growth factor receptor 1 (Homo sapiens) (UniProt P17948); experiment: Inhibition of VEGFR1 at 100 uM
[35] = molecular target: Vascular endothelial growth factor receptor 2 (Homo sapiens) (UniProt P35968); experiment: Inhibition of VEGFR2 at 100 uM
[36] = molecular target: Vascular endothelial growth factor receptor 3 (Homo sapiens) (UniProt P35916); experiment: Inhibition of VEGFR3 at 100 uM
MKN-45 = experiment: Antiproliferative activity against human MKN45 cells after 72 hrs by MTT assay; format: functional, cell-based; conditions: MKN-45, 72 h
HCT-116 = experiment: Antiproliferative activity against human HCT116 cells after 72 hrs by MTT assay; format: functional, cell-based; conditions: HCT-116, 72 h
HMEC = experiment: Antiproliferative activity against human HMEC cells after 72 hrs by MTT assay; format: functional, cell-based
HOS-TE85 = experiment: Antitumor activity against human MNNG-HOS cell xenografted mouse assessed as tumor regression at 40 mg/kg, po after 12 days; format: functional, organism-based; design: dose 40 mg/kg

Structure (SMILES): Cn1cnc(-c2cc3nccc(Oc4ccc(NC(=S)NC(=O)Cc5ccccc5)cc4F)c3s2)c1
IC50 [1]: 26 nM

Structure (SMILES): C=CCN1CCN(C(=O)Nc2ccc(Oc3ccnc4cc(OC)c(OC)cc34)c(F)c2)C1=O
IC50 [2]: 200 nM | IC50 [1]: 630 nM | IC50 [3]: Not Active

Structure (SMILES): COc1cc2nccc(N(C)c3ccc(NC(=O)N4CCN(c5ccccc5)C4=O)cc3F)c2cc1OC
IC50 [2]: 400 nM | IC50 [1]: 5900 nM | IC50 [3]: Not Active

Structure (SMILES): Cn1cnc(-c2cc3nccc(Oc4ccc(NC(=O)N5CCN(c6ccccc6)C5=O)cc4F)c3s2)c1
IC50 [1]: 8 nM

Structure (SMILES): COc1cc2nccc(Oc3ccc(NC(=O)N4CCN(c5ccccc5OC)C4=O)cc3F)c2cc1OC
IC50 [2]: 50 nM | IC50 [1]: 30 nM | IC50 ([3]; read-out: IC50): 150 nM

Structure (SMILES): COc1cc2nccc(Oc3ccc(NC(=O)N4CCN(c5ccccc5)C4=O)c(F)c3)c2cc1OC
IC50 [2]: 30 nM | IC50 [1]: 50 nM | IC50 ([3]; read-out: IC50): > 10000 nM

Structure (SMILES): COCCOc1cc2nccc(Oc3ccc(NC(=O)N4CCN(c5ccccc5)C4=O)cc3F)c2cc1OCCOC
IC50 [2]: 60 nM | IC50 [1]: 40 nM | IC50 ([3]; read-out: IC50): 20 nM

Structure (SMILES): COc1cc2nccc(Oc3ccc(NC(=O)N4CCN(c5ccccc5)C4=O)cc3)c2cc1OC
IC50 [2]: 50 nM | IC50 [1]: 30 nM | IC50 ([3]; read-out: IC50): 240 nM

Structure (SMILES): COc1cc2nccc(Oc3ccc(NC(=O)N4CCN(c5ccc(F)cc5)C4=O)cc3)c2cc1OC
IC50 [2]: 50 nM | IC50 [1]: 30 nM | IC50 ([3]; read-out: IC50): 150 nM

Structure (SMILES): COc1cc2nccc(Oc3ccc(NC(=O)N4CCN(c5ccccc5)C4=O)cn3)c2cc1OC
IC50 [2]: 60 nM | IC50 [1]: 1300 nM | IC50 ([3]; read-out: IC50): 5000 nM

Structure (SMILES): COc1cc2nccc(Oc3ccc(NC(=O)N4CCN(c5ccncc5)C4=O)cc3F)c2cc1OC
IC50 [2]: 100 nM | IC50 [1]: 600 nM | IC50 ([3]; read-out: IC50): 630 nM

Structure (SMILES): COc1cc2ncnc(Oc3ccc(NC(=O)N4CCN(c5ccccc5)C4=O)cc3F)c2cc1OC
IC50 [2]: 40 nM | IC50 [1]: 30 nM | IC50 ([3]; read-out: IC50): > 1000 nM

Structure (SMILES): COc1cc2nccc(Oc3ccc(NC(=O)N4CCN(c5ccccc5)C4=O)nc3)c2cc1OC
IC50 [2]: 30 nM | IC50 [1]: 20 nM | IC50 ([3]; read-out: IC50): > 10000 nM

Structure (SMILES): COc1cc2nccc(Oc3ccc(NC(=O)N4CCN(N5CCCCC5)C4=O)cc3F)c2cc1OC
IC50 [2]: 60 nM | IC50 [1]: 370 nM | IC50 ([3]; read-out: IC50): 640 nM

Structure (SMILES): COc1cc2nccc(Oc3ccc(NC(=O)N4CCN(c5ccc(F)cc5)C4=O)cc3F)c2cc1OC
IC50 [2]: 30 nM | IC50 [1]: 20 nM | IC50 ([3]; read-out: IC50): 90 nM

Structure (SMILES): COc1cc2nccc(Oc3ccc(NC(=O)N4CCN(c5ccccc5F)C4=O)cc3F)c2cc1OC
IC50 [2]: 60 nM | IC50 [1]: 20 nM | IC50 ([3]; read-out: IC50): 370 nM

Structure (SMILES): COc1cc2nccc(Oc3ccc(NC(=O)N4CCN(c5cccc(F)c5)C4=O)cc3F)c2cc1OC
IC50 [2]: 50 nM | IC50 [1]: 15 nM | IC50 ([3]; read-out: IC50): 200 nM

Structure (SMILES): COc1cc2nccc(Oc3ccc(NC(=O)N4CCN(C5CCCCC5)C4=O)cc3F)c2cc1OC
IC50 [2]: 110 nM | IC50 [1]: 210 nM | IC50 ([3]; read-out: IC50): 860 nM

Further lines, with some results ahead:

IC50 [2]: 50 nM | IC50 [1]: 20 nM | IC50 ([3]; read-out: IC50): 130 nM
Structure (SMILES): COc1cc2c(Oc3ccc(NC(=O)N4CCN(c5ccccc5)C4=O)cc3F)ccnc2cc1OCC1CCN(C)CC1

IC50 [2]: 600 nM | IC50 [1]: > 2000 nM | IC50 ([3]; read-out: IC50): 3300 nM
Structure (SMILES): COc1cc2ncnc(Nc3ccc(NC(=O)N4CCN(c5ccccc5)C4=O)cc3F)c2cc1OC

IC50 [2]: 40 nM | IC50 [1]: 100 nM | IC50 ([3]; read-out: IC50): 80 nM
Structure (SMILES): COc1cc2nccc(Sc3ccc(NC(=O)N4CCN(c5ccc(F)cc5)C4=O)cc3)c2cc1OC

IC50 [2]: 40 nM | IC50 [1]: 120 nM | IC50 ([3]; read-out: IC50): 30 nM
Structure (SMILES): COc1cc2nccc(Oc3ccc(NC(=O)N4CCN(c5ccc(F)cc5)C4=O)cc3F)c2cc1OCCCN1CCOCC1

IC50 [2]: 200 nM | IC50 [1]: 1400 nM | IC50 [3]: Not Active
Structure (SMILES): COc1cc2nccc(Nc3ccc(NC(=O)N4CCN(c5ccccc5)C4=O)cc3F)c2cc1OC

IC50 [2]: 40 nM | IC50 [1]: 20 nM | IC50 ([3]; read-out: IC50): 80 nM
Structure (SMILES): COc1cc2c(Oc3ccc(NC(=O)N4CCN(c5ccccc5)C4=O)cc3F)ccnc2cc1OCC1CCNCC1

IC50 [2]: 4000 nM | IC50 [1]: > 2000 nM | IC50 ([3]; read-out: IC50): > 10000 nM
Structure (SMILES): COc1cc2ncnc(N(C)c3ccc(NC(=O)N4CCN(c5ccccc5)C4=O)cc3F)c2cc1OC

IC50 [2]: 40 nM | IC50 [1]: 230 nM | IC50 [3]: Not Active
Structure (SMILES): COc1cc2nccc(Oc3ccc(NC(=O)N4CCN(c5ccccn5)C4=O)cc3F)c2cc1OC

IC50 [1]: 10 nM | IC50 ([3]; read-out: IC50): 90 nM | half-life [4]: 4.4 h | bioavailability [5]: 22% | IC50 [6]: < 1 nM | inhibition [10]: 0% | inhibition [11]: 0% | inhibition [12]: 0% | inhibition [13]: 0% | inhibition [14]: 1% | inhibition [15]: 12% | inhibition [16]: 42% | inhibition [17]: 7% | inhibition [18]: 0% | inhibition [19]: 11% | inhibition [20]: 72% | inhibition [21]: 0% | inhibition [22]: 0% | inhibition [23]: 4% | inhibition [24]: 6% | inhibition [25]: 0% | inhibition [26]: 100% | inhibition [27]: 26% | inhibition [28]: 6% | inhibition [29]: 0% | inhibition [30]: 96% | inhibition [31]: 92% | inhibition [32]: 23% | inhibition [33]: 94% | inhibition [34]: 100% | inhibition [35]: 92% | inhibition [36]: 93% | IC50 (MKN-45): 8 nM | IC50 (HCT-116): 300 nM
Structure (SMILES): COc1cc2nccc(Oc3ccc(NC(=O)N4CCN(c5ccccc5)C4=O)cc3F)c2cc1OC
IC50 (HUVEC [7]): 2 nM | IC50 (HUVEC [8]): 8 nM | inhibition (INH) (HUVEC [9]): 99.4% | IC50 (HMEC): > 2500 nM | Activity (HOS-TE85): Active

IC50 [2]: 50 nM | IC50 [1]: 30 nM | IC50 ([3]; read-out: IC50): 50 nM
Structure (SMILES): COc1cc2c(Oc3ccc(NC(=O)N4CCN(c5ccccc5)C4=O)cc3F)ccnc2cc1OCCCN1CCOCC1

IC50 [1]: 32 nM
Structure (SMILES): COc1cc2nccc(Oc3ccc(NC(=S)NC(=O)Cc4ccccc4)cc3F)c2cc1OC
